pEC50, pIC50: −log10 of the molar value. Where a name gives a salt, the structure may show the parent alone.
Key:
[1] = system: CD3/CD28 induced IL-2 in human T-Blasts; test: T-Blasts CD3/CD28 induced IL-2 assay; format: cell-based; settings: read-out: CD3/CD28-stimulated IL2 in T-blasts EC50
Method in brief: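 IL-2 in supernatants read after 24 h 37° C stimulation of human PHA T-blasts (2×10^5/well) with anti-CD3/anti-CD28 at 5 μg/mL final. Duplicate eight-point, 1/3-step compound series added 30 min before stimulus; residual cells checked by MTT for toxicity.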

PKCθ = molecular target: T1, PKCθ (Homo sapiens, UniProt Q04759); test: In vitro enzyme assay (time-resolved fluorescence kinase assay), PKCθ, 100 μM ATP; format: biochemical
T1 construct: His6; purchased Millipore; host or cells: baculovirus in Sf21 cells
Method in brief: (§1)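 Read-out was time-resolved fluorescence, corrected for a minus-enzyme blank and converted to percent activity relative to enzyme without drug. They were stopped with EDTA.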

PKCα = molecular target: T2, PKCα (Homo sapiens, UniProt P17252); test: In vitro enzyme assay (time-resolved fluorescence kinase assay), PKCα, 100 μM ATP; format: biochemical; settings: 100 μM ATP; read-out: PKCα enzyme IC50
T2 construct: His6; purchased Millipore; host or cells: baculovirus in Sf21 cells
Method in brief: as §1

T1 sequence (Q04759 whole entry): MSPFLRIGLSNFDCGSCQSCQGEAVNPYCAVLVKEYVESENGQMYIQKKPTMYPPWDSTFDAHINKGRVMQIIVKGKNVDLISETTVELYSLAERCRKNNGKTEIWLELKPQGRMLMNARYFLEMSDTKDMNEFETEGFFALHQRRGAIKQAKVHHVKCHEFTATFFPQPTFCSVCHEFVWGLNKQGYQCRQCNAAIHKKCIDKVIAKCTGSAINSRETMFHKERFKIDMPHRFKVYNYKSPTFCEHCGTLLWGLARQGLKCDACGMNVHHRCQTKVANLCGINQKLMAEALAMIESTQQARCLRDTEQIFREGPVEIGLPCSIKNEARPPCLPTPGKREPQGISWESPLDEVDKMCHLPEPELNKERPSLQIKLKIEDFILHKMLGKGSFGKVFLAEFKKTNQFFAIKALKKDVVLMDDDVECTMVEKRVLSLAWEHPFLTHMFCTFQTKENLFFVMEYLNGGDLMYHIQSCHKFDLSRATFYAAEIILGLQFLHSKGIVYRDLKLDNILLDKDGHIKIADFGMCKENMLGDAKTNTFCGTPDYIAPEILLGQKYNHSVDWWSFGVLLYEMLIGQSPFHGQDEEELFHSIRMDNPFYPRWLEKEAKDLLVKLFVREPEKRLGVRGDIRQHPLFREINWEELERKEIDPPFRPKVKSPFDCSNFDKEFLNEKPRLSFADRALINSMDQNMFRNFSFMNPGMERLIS

Structure (SMILES) | pEC50 [1] | pIC50 (PKCθ) | pIC50 (PKCα)
CC1C(=O)NN=C2COc3cc(C4CCCC4)c(NC4CNC4)cc3N21 (stereo not drawn) [Example 60] | 6.00 to 6.60 | > 6.60 | 5.00 to 6.00
CC(C)c1cc2c(cc1NC1CNC1)N1C(=NNC(=O)[C@@H]1C)CO2 (single isomer, unassigned) [Example 57-2, trifluoroacetic acid] | 5.00 to 6.00 | 6.00 to 6.60 | 5.00 to 6.00
C[C@@H]1C(=O)NN=C2COc3cc(-c4ccccc4F)c(N4CCN(C)C[C@@H]4C)cc3N21 [Example 231] | > 6.60 | > 6.60 | 6.00 to 6.60
CC1C(=O)NN=C2COc3cc(C(F)(F)F)c(CC4CNC4)cc3N21 (stereo not drawn) [Example 99, 6-Azetidin-3-ylmethyl-4-methyl-7-trifluoromethyl-2,10-dihydro-9-oxa-1,2,4a-triaza-phenanthren-3-one trifluoroacetic acid] | 6.00 to 6.60 | > 6.60 | 5.00 to 6.00
CC(C)c1cc2c(cc1OC1CNC1)N1C(=NNC(=O)C1C)CO2 (stereo not drawn) [Example 68, 6-(Azetidin-3-yloxy)-7-isopropyl-4-methyl-2,10-dihydro-9-oxa-1,2,4a-triaza-phenanthren-3-one trifluoroacetic acid] | 6.00 to 6.60 | 6.00 to 6.60 | 5.00 to 6.00
Cc1ccc(-c2cc3c(cc2N(C)C2(C)CN(C)C2)N2C(=NNC(=O)C2C)CO3)cc1 (stereo not drawn) [Example 167] | > 6.60 | > 6.60 | 6.00 to 6.60
Cc1cc(F)ccc1-c1cc2c(cc1NC1CNC1)N1C(=NNC(=O)C1C)CO2 (racemic) [Example 13] | > 6.60 | > 6.60 | 5.00 to 6.00
CCN1CC(C)(N(C)c2cc3c(cc2-c2ccccc2)OCC2=NNC(=O)C(C)N23)C1 (stereo not drawn) [Example 93] | 5.00 to 6.00 | > 6.60 | 5.00 to 6.00
CC1C(=O)NN=C2COc3cc(C(F)(F)F)c(C4CCNC(Cc5ccccc5)C4)cc3N21 (stereo not drawn) [Example 116, 9-(2-Benzylpiperidin-4-yl)-1-methyl-8-(trifluoromethyl)-3,5-dihydrobenzo[5,6][1,4]oxazino[3,4-c][1,2,4]triazin-2(1H)-one trifluoroacetic acid] | 6.00 to 6.60 | > 6.60 | 5.00 to 6.00
C[C@@H]1C(=O)NN=C2COc3cc(-c4ccccc4F)c(NC4CNC4)cc3N21 [Example 3] | > 6.60 | > 6.60 | 5.00 to 6.00
C[C@@H]1C(=O)NN=C2COc3cc(-c4ccccc4Cl)c(N(C)C4(C)CN(C)C4)cc3N21 [Example 177] | > 6.60 | > 6.60 | 6.00 to 6.60
C[C@@H]1C(=O)NN=C2COc3cc(-c4ccccc4Cl)c(NC4CNC4)cc3N21 [Example 2] | > 6.60 | > 6.60 | 6.00 to 6.60
CC1C(=O)NN=C2COc3ccc(OC4(C)CNC4)cc3N21 (stereo not drawn) [Example 69, 4-Methyl-6-(3-methyl-azetidin-3-yloxy)-2,10-dihydro-9-oxa-1,2,4a-triaza-phenanthren-3-one trifluoroacetic acid] | > 6.60 | > 6.60 | 5.00 to 6.00
C[C@@H]1C(=O)NN=C2COc3cc(-c4ccccc4F)c([C@@H](C)C4(C)CN(C[C@@H](C)O)C4)cc3N21 [Example 140] | > 6.60 | > 6.60 | 6.00 to 6.60
C[C@@H]1C(=O)NN=C2COc3cc4c(cc3N21)N(C1(C)CNC1)CC4 [Example 159, 1-Methyl-10-(3-methyl-azetidin-3-yl)-3,5,9,10-tetrahydro-8H-6-oxa-3,4,10,11b-tetraaza-cyclopenta[b]phenanthren-2-one hydrochloride] | > 6.60 | > 6.60 | 5.00 to 6.00
C[C@H]1C(=O)NN=C2COc3cc(-c4ccccc4F)c(N(C)[C@@]4(C)CCN(C)C4)cc3N21 (single isomer, unassigned) [Example 198-1] | 5.00 to 6.00 | > 6.60 | 5.00 to 6.00
Cc1ccc(-c2cc3c(cc2NC2CNC2)N2C(=NNC(=O)C2C)CO3)cc1 (racemic) [Example 29] | > 6.60 | > 6.60 | 5.00 to 6.00
Cc1cc2c(cc1NC1CNC1)N1C(=NNC(=O)C1C)CO2 (stereo not drawn) [Example 122, 9-(Azetidin-3-ylamino)-1,8-dimethyl-3,5-dihydrobenzo[5,6][1,4]oxazino[3,4-c][1,2,4]triazin-2(1H)-one ditrifluoroacetic acid] | 5.00 to 6.00 | > 6.60 | 5.00 to 6.00
CC1C(=O)NN=C2COc3cc(C(C)C(F)(F)F)c(NC4(C)CNC4)cc3N21 (stereo not drawn) [Example 63] | > 6.60 | > 6.60 | 5.00 to 6.00
CC1C(=O)NN=C2COc3cc(-c4ccc(F)cc4F)c(NC4CNC4)cc3N21 (racemic) [Example 47] | > 6.60 | > 6.60 | 5.00 to 6.00
C[C@@H]1C(=O)NN=C2COc3cc4ccn(C5(C)CNC5)c4cc3N21 [Example 148, (R)-1-Methyl-10-(3-methyl-azetidin-3-yl)-3,5-dihydro-10H-6-oxa-3,4,10,11b-tetraaza-cyclopenta[b]phenanthren-2-one hydrochloride] | > 6.60 | > 6.60 | 6.00 to 6.60

Structure (SMILES) | pEC50 [1] | pIC50 (PKCθ) | pIC50 (PKCα)
COCc1ccccc1-c1cc2c(cc1N(C)C1(C)CN(C)C1)N1C(=NNC(=O)[C@H]1C)CO2 [Example 181] | 6.00 to 6.60 | > 6.60 | 5.00 to 6.00
CC1C(=O)NN=C2COc3cc(-c4ccccc4)c(N(C)C4(C)CN(C5COC5)C4)cc3N21 (stereo not drawn) [Example 196] | 5.00 to 6.00 | > 6.60 | 5.00 to 6.00
C[C@@H]1C(=O)NN=C2COc3cc(-c4ccccc4F)c(N(C)C4(C)CN(C(=O)CO)C4)cc3N21 [Example 184] | 6.00 to 6.60 | > 6.60 | 5.00 to 6.00
CC1C(=O)NN=C2COc3cc4ccn(C5CCCNC5)c4cc3N21 (stereo not drawn) [Example 152] | 6.00 to 6.60 | > 6.60 | 5.00 to 6.00
C[C@@H]1C(=O)NN=C2COc3cc(-c4ccc(Cl)cc4Cl)c(NC4CNC4)cc3N21 [Example 8] | > 6.60 | > 6.60 | 5.00 to 6.00
Cc1cc2c(cc1N1CCC13CCNCC3)N1C(=NNC(=O)C1C)CO2 (stereo not drawn) [Example 115, 1,8-Dimethyl-9-(1,7-diazaspiro[3.5]nonan-1-yl)-3,5-dihydrobenzo[5,6][1,4]oxazino[3,4-c][1,2,4]triazin-2(1H)-one trifluoroacetic acid] | > 6.60 | > 6.60 | 5.00 to 6.00
CC1C(=O)NN=C2COc3cc(-c4ccoc4)c(N(C)C4(C)CN(C)C4)cc3N21 (stereo not drawn) [Example 173] | 6.00 to 6.60 | > 6.60 | 5.00 to 6.00
C[C@@H]1C(=O)NN=C2COc3cc(-c4ccc(F)cc4F)c(N(C)C4(C)CN(C)C4)cc3N21 [Example 178] | > 6.60 | > 6.60 | 6.00 to 6.60
C[C@@H]1C(=O)NN=C2COc3cc(-c4ccccc4F)c([C@H]4CCNC4)cc3N21 [Example 214] | > 6.60 | > 6.60 | 5.00 to 6.00
CC1C(=O)NN=C2COc3cc(OCc4ccccc4)c(NC4CNC4)cc3N21 (stereo not drawn) [Example 127, 6-(Azetidin-3-ylamino)-7-benzyloxy-4-methyl-2,10-dihydro-9-oxa-1,2,4a-triaza-phenanthren-3-one trifluoroacetic acid] | 6.00 to 6.60 | > 6.60 | 5.00 to 6.00
CC1C(=O)NN=C2COc3cc(-c4ccccc4)c(N(C)C4(C)CN(CC5CCOCC5)C4)cc3N21 (stereo not drawn) [Example 95] | > 6.60 | > 6.60 | 6.00 to 6.60
CC[C@@H]1CNCCN1c1cc2c(cc1-c1ccccc1F)OCC1=NNC(=O)[C@@H](C)N12 [Example 226] | 6.00 to 6.60 | > 6.60 | 6.00 to 6.60
C[C@@H]1CN(CCO)CC[C@@H]1c1cc2c(cc1-c1ccccc1F)OCC1=NNC(=O)[C@@H](C)N12 [Example 207] | 6.00 to 6.60 | > 6.60 | 5.00 to 6.00
C[C@@H]1C(=O)NN=C2COc3ccc([C@H](C)C4CNC4)cc3N21 [Example 111] | 6.00 to 6.60 | > 6.60 | 5.00 to 6.00
Cc1cc2c(cc1NC1CNC1)N1C(=NNC(=O)[C@@H]1C)CO2 (single isomer, unassigned) [Example 54-2, trifluoroacetic acid] | 5.00 to 6.00 | 6.00 to 6.60 | 5.00 to 6.00
CC(C)Cc1cc2c(cc1NC1CNC1)N1C(=NNC(=O)C1C)CO2 (stereo not drawn) [Example 58] | > 6.60 | > 6.60 | 5.00 to 6.00
CC1C(=O)NN=C2COc3cc(-c4cccc(Cl)c4)c(NC4CNC4)cc3N21 (racemic) [Example 17] | > 6.60 | > 6.60 | 5.00 to 6.00
CC(C)c1cc2c(cc1[C@@H](C)C1(C)CN(C)C1)N1C(=NNC(=O)[C@H]1C)CO2 [Example 134, (R)-6-[(R)-1-(1,3-Dimethyl-azetidin-3-yl)-ethyl]-7-isopropyl-4-methyl-2,10-dihydro-9-oxa-1,2,4a-triaza-phenanthren-3-one] | 6.00 to 6.60 | > 6.60 | 5.00 to 6.00
CC1C(=O)NN=C2COc3cc(F)c(OC4(C)CNC4)cc3N21 (stereo not drawn) [Example 80, 7-Fluoro-4-methyl-6-(3-methyl-azetidin-3-yloxy)-2,10-dihydro-9-oxa-1,2,4a-triaza-phenanthren-3-one trifluoroacetic acid] | > 6.60 | > 6.60 | 5.00 to 6.00
CC1C(=O)NN=C2COc3cc(-c4ccc(C(F)(F)F)cc4)c(NC4CNC4)cc3N21 (racemic) [Example 14] | > 6.60 | 6.00 to 6.60 | 5.00 to 6.00
CC1C(=O)NN=C2COc3cc(-c4ccc(F)c(F)c4)c(NC4CNC4)cc3N21 (racemic) [Example 23] | > 6.60 | > 6.60 | 5.00 to 6.00

Source: US9115151B2, “Substituted 2,10-dihydro-9-oxa-1,2,4A-triazaphenanthren-3-ones and uses thereof” (AbbVie Inc., priority 2012, dated 2015)
